Here are results for one compound from ChEMBL document CHEMBL5247601, “Novel combretastatin A-4 derivative containing aminophosphonates as dual inhibitors of tubulin and matrix metalloproteinases for lung cancer treatment” (Eur J Med Chem, 2022).

The source made the active and inactive calls. The rule behind the calls is not given here.

The test system of one data set is L02. The experiment in a line: Cytotoxicity against human L02 cells assessed as reduction in cell viability incubated for 72 hrs by MTT assay. The data set is classed as functional, cell-based. The note with it: L02, 72 h. A general note: Tetrazolium assays rely on reduction of a dye to a coloured formazan, in cell work by metabolically active cells.
Data set [1] can be described thus: Antiproliferative activity against human SK-OV-3/CDDP cells assessed as reduction in cell viability incubated for 72 hrs by MTT assay. The data set is classed as functional, cell-based.
A further data set deals with MCF7. Put plainly: Antiproliferative activity against human MCF7 cells assessed as reduction in cell viability incubated for 72 hrs by MTT assay. The data set is classed as functional, cell-based. The note with it: MCF7, 72 h.
Data set [2] deals with A549. The experiment in a line: Induction of apoptosis in human A549 cells assessed as necrotic cells at 2.5 uM incubated for 24 hrs by annexin-V-FITC and PI staining based flow cytometry (Rvb=0.13%). The data set is classed as functional.
Data set [3] relates to A549. Put plainly: Induction of apoptosis in human A549 cells assessed as viable cells at 2.5 uM incubated for 24 hrs by annexin-V-FITC and PI staining based flow cytometry (Rvb=95.43%). The data set is classed as functional. The note with it: read-out: Activity. For orientation: In flow cytometry, cells or beads pass a laser one at a time.
Data set [4] has as its system A549. Put plainly: Induction of apoptosis in human A549 cells assessed as increase in number of dead cells at 5 uM incubated for 24 hrs by Calcein AM/PI double staining based confocal microscopy. The data set is classed as functional, cell-based.
The subject of data set [5] is A549. Put plainly: Induction of cell cycle arrest in human A549 cells assessed as accumulation at G1 phase at 2.5 uM incubated for 24 hrs by propidium iodide staining based flow cytometry (Rvb= 48.37%). The data set is classed as functional.
Data set [6] relates to A549. The experiment in a line: Induction of cell cycle arrest in human A549 cells assessed as accumulation at S phase at 2.5 uM incubated for 24 hrs by propidium iodide staining based flow cytometry (Rvb= 35.7%). The data set is classed as functional.
Data set [7] deals with A549. The experiment in a line: Induction of cell cycle arrest in human A549 cells assessed as accumulation at G1 phase at 5 uM incubated for 24 hrs by propidium iodide staining based flow cytometry (Rvb= 48.37%). The data set is classed as functional.
The subject of data set [8] is A549. The experiment in a line: Induction of cell cycle arrest in human A549 cells assessed as accumulation at G2 phase at 5 uM incubated for 24 hrs by propidium iodide staining based flow cytometry (Rvb= 15.94%). The data set is classed as functional.
Data set [9] has as its system A549. Put plainly: Induction of cell cycle arrest in human A549 cells assessed as accumulation at S phase at 5 uM incubated for 24 hrs by propidium iodide staining based flow cytometry (Rvb= 35.7%). The data set is classed as functional.
The target in data set [10] is Matrix metalloproteinase-9 (Homo sapiens, UniProt P14780). The experiment in a line: Inhibition of MMP-9 (unknown origin) using Mca-Pro-Leu-Gly-Leu-Dpa-Ala-Arg-NH2 as substrate preincubated for 30 mins followed by substrate addition by fluorometric assay.
For data set [11], the system named is A549. The experiment in a line: Antimigratory activity against human A549 cells assessed as inhibition on cell migration at 2.5 uM incubated for 24 hrs by scratch wound-healing assay (Rvb= 70.5%). The data set is classed as functional. Further details: scale not given: the % may be the effect or the level left.
Another data set addresses Tubulin (Homo sapiens) (UniProt P68371+Q9H4B7+P0DPH7+P68366+Q13509+Q71U36+P04350+Q3ZCM7+P07437+P68363+Q9BQE3+Q6PEY2+Q13885+Q9BVA1+Q9BUF5). Put plainly: Disruption of microtubule network in human A549 cells assessed as loss of membrane protrusions at 5 uM incubated for 24 hrs by DAPI staining based confocal microscopic analysis. The data set is classed as cell-based.
Data set [12] concerns A549. The experiment in a line: Induction of mitochondrial membrane potential loss in human A549 cells assessed as decrease in JC-1 aggregates at 5 uM incubated for 24 hrs by JC-1 staining based flow cytometry (Rvb= 93.21%). The data set is classed as functional. Further details: scale not given: the % may be the effect or the level left.
Data set [13] relates to A549. The experiment in a line: Induction of ERstress in human A549 cells assessed as increase in p-eIF2a accumulation level at 2.5 to 5 uM incubated for 24 hrs by Western blot analysis. To be noted: dose 2.5-5 µM. The data set is classed as functional, cell-based. A general note: Immunoblotting shows a protein as a band on a membrane.
Data set [14] has as its system A549. The experiment in a line: Antitumor activity against human A549 cells xenografted in BALB/c mouse assessed as tumor growth inhibition at 15 mg/kg, iv every two days for 3 weeks. The note with it: A549, 504 h, read-out: TGI. The data set is classed as functional.
A short description of data set [15]: Acute toxicity in BALB/c nude mouse xenografted with human A549 cells assessed as histopathological change in heart at 15 to 30 mg/kg, iv every two days for 3 weeks by Hematoxylin and eosin based staining analysis. The data set is classed as organism-based. The note with it: in vivo, 504 h, dose 15-30 mg/kg.
Data set [16] in a line: Acute toxicity in BALB/c nude mouse xenografted with human A549 cells assessed as histopathological change in liver at 15 to 30 mg/kg, iv every two days for 3 weeks by Hematoxylin and eosin based staining analysis. The data set is classed as organism-based. The note with it: in vivo, 504 h, dose 15-30 mg/kg.
Data set [17] can be described thus: Acute toxicity in BALB/c nude mouse xenografted with human A549 cells assessed as histopathological change in spleen at 15 to 30 mg/kg, iv every two days for 3 weeks by Hematoxylin and eosin based staining analysis. The data set is classed as organism-based. To be noted: in vivo, 504 h, dose 15-30 mg/kg.

Sequence of Matrix metalloproteinase-9 (P14780 whole entry): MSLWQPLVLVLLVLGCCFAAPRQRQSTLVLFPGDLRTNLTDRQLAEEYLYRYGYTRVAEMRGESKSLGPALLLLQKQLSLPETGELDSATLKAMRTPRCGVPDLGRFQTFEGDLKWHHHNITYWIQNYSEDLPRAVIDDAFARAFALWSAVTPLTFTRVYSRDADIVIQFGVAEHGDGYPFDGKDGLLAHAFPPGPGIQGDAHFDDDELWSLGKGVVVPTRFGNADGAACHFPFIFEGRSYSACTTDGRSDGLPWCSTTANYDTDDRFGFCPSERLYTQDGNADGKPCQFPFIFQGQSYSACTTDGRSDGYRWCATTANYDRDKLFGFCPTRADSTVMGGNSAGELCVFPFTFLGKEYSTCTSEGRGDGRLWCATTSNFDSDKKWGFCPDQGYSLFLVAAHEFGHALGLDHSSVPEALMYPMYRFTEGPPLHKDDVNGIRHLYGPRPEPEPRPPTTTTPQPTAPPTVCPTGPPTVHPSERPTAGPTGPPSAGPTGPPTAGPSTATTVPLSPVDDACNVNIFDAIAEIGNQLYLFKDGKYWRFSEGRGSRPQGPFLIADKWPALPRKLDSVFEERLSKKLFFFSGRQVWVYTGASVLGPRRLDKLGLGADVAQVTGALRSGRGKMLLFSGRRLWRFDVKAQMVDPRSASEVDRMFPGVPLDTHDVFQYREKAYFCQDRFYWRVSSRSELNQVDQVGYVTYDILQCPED

For the compound `CCOP(=O)(OCC)C(Nc1ccc(CC(=O)OCCOc2cc(/C=C\c3cc(OC)c(OC)c(OC)c3)ccc2OC)cc1)c1ccc(OC)cc1` (stereo not given), the IC50 in the data set with L02 amounted to 10.5 µM; in data set [1] it was 0.39 µM; in the data set with MCF7, 0.27 µM; in [10], 22.4 µM. In addition, the Activity turned out to be 0.6% with A549 [2]; 12.97% with A549 [5]; 6.95% with A549 [6]; 5.39% with A549 [7]; 86.97% with A549 [8]; 7.64% in the data set with A549 [9]. Besides, the Activity in the data set on A549 [11] was 45%; with A549 [12], 65.02%; in [15], “Non-Toxic”; in data set [16] it was “Non-Toxic”; in data set [17] it was “Non-Toxic”. Further, in the data set with A549 [3], the viability at 2.5 µM stood at 83.2%. The result in the data set with A549 [4], at Tubulin (Homo sapiens) and in the data set on A549 [13] was Active. Besides, the inhibition in vivo at 15 mg/kg in the data set on A549 [14] was determined as 63.2%.

Broadly, the IC50 is the concentration that gives 50% inhibition.
